Laboratory results taken from patent US6458826B2, “Composition for repelling and deterring pests” (Navartis Animal Health US, Inc., priority 1998, dated 2002).

What was measured:
[1] = tested on: Rhipicephalus sanguineus (nymphs); assay: Arena test in vitro against Rhipicephalus sanguineus (nymphs); format: in vivo; details: even up to a dilution of 3.2 μg/cm^2
Procedure: (§1) This method is carried out in titre plates having 6 wells with a cross-section of 5 cm each, using a computer-supported video system. Each well of the titre plate is lined with a circular filter paper or another suitable carrier material. The substance of formula I to be tested is dissolved in methanol, acetonitrile or another suitable solvent, with ultrasound treatment and heating being employed for poorly-soluble substances. In an amount of 1 to 100 μg/cm^2, the dissolved test substance is placed in the centre of the filter paper on a quadrant or circular area of ca. 2.4 cm^2 radius. 4 of the 6 wells are filled with different test substances or with the same test substance in different dilutions (e.g. 1, 3.2, 5, 10 and 20 μg/cm^2). The 5th well is treated with DEET (N,N-diethyl-m-toluamide) as standard substance. The 6th well is filled with the pure solvent and serves as a control. 60 to 100 larvae or 25 to 50 nymphs or 10 to 25 adults of the parasite to be tested, e.g. ticks, are added to each filter paper, and the system is covered with a pane of glass and positioned under a video camera. At intervals of 5 seconds, the video camera takes individual pictures of all 6 wells. For a qualitative evaluation, these images are observed in a time-lapse as a continuous film, optically following the movements of the parasites on the filter paper and comparing them with the movements in the control well no. 6 or with the standard in the 5th well. A qualitative observation is thus made as to whether the test parasites move evenly over the whole surface of the filter paper and ignore the test substance, or whether and over what period they avoid the treated zone, and what influence the dilution of the test substance has on the behaviour of the test parasites. In this way, neutral and repellent substances are determined. At the same time, the duration of activity of the test substance is determined and compared with that of the standard. […] This frequency is evaluated statistically and thus quantitatively by the Willcoxon method in a comparison with the control and with the standard. […]

[2] = tested on: Amblyomma hebraeum or variegatum (nymphs); assay: Arena test in vitro against Amblyomma hebraeum or variegatum (nymphs); format: in vivo; details: even up to a dilution of 3.2 μg/cm^2
Procedure: as §1

[3] = tested on: Boophilus microplus Biarra (larvae); assay: Arena test in vitro against Boophilus microplus Biarra (larvae); format: in vivo; details: even up to a dilution of 3.2 μg/cm^2
Procedure: as §1

ticks = assay: Arena test method for testing vermin-repellent substances; format: in vivo; details: 1 to 100 μg/cm^2 on filter paper, video evaluation versus control and DEET
Procedure: Arena Test Method for Testing Vermin-repellent Substances
This method is carried out in titre plates having 6 wells with a cross-section of 5 cm each, using a computer-supported video system. Each well of the titre plate is lined with a circular filter paper or another suitable carrier material. The substance of formula I to be tested is dissolved in methanol, acetonitrile or another suitable solvent, with ultrasound treatment and heating being employed for poorly-soluble substances. In an amount of 1 to 100 μg/cm^2, the dissolved test substance is placed in the centre of the filter paper on a quadrant or circular area of ca. 2.4 cm^2 radius. 4 of the 6 wells are filled with different test substances or with the same test substance in different dilutions (e.g. 1, 3.2, 5, 10 and 20 μg/cm^2). The 5th well is treated with DEET (N,N-diethyl-m-toluamide) as standard substance. The 6th well is filled with the pure solvent and serves as a control. […] In this way, neutral and repellent substances are determined. At the same time, the duration of activity of the test substance is determined and compared with that of the standard. […] This frequency is evaluated statistically and thus quantitatively by the Willcoxon method in a comparison with the control and with the standard. […]

vermin = details: cited from earlier work

Compound: OC(c1ccccc1)C1CCCN1 (stereo not drawn) [Compound 1.31, 2-[(1-phenyl)(1-hydroxy)methyl]pyrrolidine]
- long-term activity against Rhipicephalus sanguineus nymphs [1]: Particularly marked long-term activity
- long-term activity against Amblyomma nymphs [2]: Particularly marked long-term activity
- long-term activity against Boophilus larvae [3]: Particularly marked long-term activity

Compound: OC(c1ccc(Cl)cc1)C1CCCN1 (stereo not drawn) [Compound 1.45, 2-[(1-[4-chorophenyl])(1-hydroxy)methyl]pyrrolidine]
- repellent activity in arena test (ticks): excellent activity
- long-term activity against Rhipicephalus sanguineus nymphs [1]: Particularly marked long-term activity
- long-term activity against Amblyomma nymphs [2]: Particularly marked long-term activity
- long-term activity against Boophilus larvae [3]: Particularly marked long-term activity

Compound: Cc1ccc(C(O)C2CCC(C)(C)N2)c(C)c1 (stereo not drawn) [Compound 1.55, 2-[(1-[2,4-dimethylphenyl])(1-hydroxy)methyl]-5,5-dimethyl-pyrrolidine]
- repellent activity in arena test (ticks): excellent activity
- long-term activity against Rhipicephalus sanguineus nymphs [1]: Particularly marked long-term activity
- long-term activity against Amblyomma nymphs [2]: Particularly marked long-term activity
- long-term activity against Boophilus larvae [3]: Particularly marked long-term activity

Compound: CCN(CC)C(=O)c1cccc(C)c1 [DEET, N,N-diethyl-m-toluamide]
- time after which it has to be reapplied (volatilizes rather rapidly) (vermin): ca. 2 hours
